Experimental data: PubChem BioAssay AID248 (DTP/NCI, 2004)
Where “and” joins values, the source holds several entries; their conditions need not be identical. Equal entries are not always repeated. Inconclusive results and toxic doses are left out. Cut-off read from the data, not from the text of the source: active = T/C of 150% or more; inactive = T/C below 125%.

Test system: L1210 leukemia ip in BDF1 mice, survival T/C
Experiment: NCI In Vivo Anticancer Drug Screen. Data for tumor model L1210 Leukemia (intraperitoneal) in B6D2F1 (BDF1) mice
Details: higher = longer survival
Method in brief: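 Transplanted-tumor mice were given test agent; controls received vehicle only. Survival readings from the two groups were divided (treated over control).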

Measured: T/C

O=C1OC(C(O)CO)C(O)=C1O (configuration not stated)
inactive: endpoint: mean survival time, dose: 0.05 mg/kg/injection, schedule: Q01DX005 (iv), vehicle: saline 98 % of control | endpoint: mean survival time, dose: 0.05 mg/kg/injection, schedule: Q01DX009 (oral), vehicle: saline 102 % of control | endpoint: mean survival time, dose: 0.1 mg/kg/injection, schedule: Q01DX005 (iv), vehicle: saline 97 % of control | endpoint: mean survival time, dose: 0.1 mg/kg/injection, schedule: Q01DX009 (ip), vehicle: saline 95 % of control | endpoint: mean survival time, dose: 0.1 mg/kg/injection, schedule: Q01DX009 (oral), vehicle: saline 98 % of control | endpoint: mean survival time, dose: 0.1 mg/kg/injection, schedule: Q01DX009 (sc), vehicle: saline 98 % of control | endpoint: mean survival time, dose: 0.12 mg/kg/injection, schedule: Q01DX009 (ip), vehicle: saline 100 % of control | endpoint: mean survival time, dose: 0.13 mg/kg/injection, schedule: Q01DX009 (ip), vehicle: saline 100 % of control | endpoint: mean survival time, dose: 0.2 mg/kg/injection, schedule: Q01DX005 (iv), vehicle: saline 102 % of control | endpoint: mean survival time, dose: 0.2 mg/kg/injection, schedule: Q01DX009 (im), vehicle: saline 98 % of control | endpoint: mean survival time, dose: 0.2 mg/kg/injection, schedule: Q01DX009 (ip), vehicle: saline 101 % of control | endpoint: mean survival time, dose: 0.39 mg/kg/injection, schedule: Q01DX005 (iv), vehicle: saline 95 % of control | endpoint: mean survival time, dose: 0.39 mg/kg/injection, schedule: Q01DX009 (im), vehicle: saline 95 % of control | endpoint: mean survival time, dose: 0.39 mg/kg/injection, schedule: Q01DX009 (ip), vehicle: saline 95 % of control | endpoint: mean survival time, dose: 0.39 mg/kg/injection, schedule: Q01DX009 (oral), vehicle: saline 98 % of control | endpoint: mean survival time, dose: 0.5 mg/kg/injection, schedule: Q01DX001 (ip), vehicle: saline 97 % of control | endpoint: mean survival time, dose: 0.5 mg/kg/injection, schedule: Q01DX009 (ip), vehicle: saline 96 % of control and 101 % of control | endpoint: mean survival time, dose: 0.78 mg/kg/injection, schedule: Q01DX005 (iv), vehicle: saline 98 % of control | endpoint: mean survival time, dose: 0.78 mg/kg/injection, schedule: Q01DX009 (im), vehicle: saline 93 % of control | endpoint: mean survival time, dose: 0.78 mg/kg/injection, schedule: Q01DX009 (ip), vehicle: saline 102 % of control | endpoint: mean survival time, dose: 0.78 mg/kg/injection, schedule: Q01DX009 (oral), vehicle: saline 99 % of control | endpoint: mean survival time, dose: 1.0 mg/kg/injection, schedule: Q01DX001 (ip), vehicle: saline 100 % of control and 101 % of control | endpoint: mean survival time, dose: 1.0 mg/kg/injection, schedule: Q01DX009 (ip), vehicle: saline 95 % of control and 101 % of control | endpoint: mean survival time, dose: 1.56 mg/kg/injection, schedule: Q01DX005 (iv), vehicle: saline 98 % of control | endpoint: mean survival time, dose: 1.56 mg/kg/injection, schedule: Q01DX009 (im), vehicle: saline 100 % of control | endpoint: mean survival time, dose: 1.56 mg/kg/injection, schedule: Q01DX009 (ip), vehicle: saline 93 % of control | endpoint: mean survival time, dose: 1.56 mg/kg/injection, schedule: Q01DX009 (oral), vehicle: saline 94 % of control | endpoint: mean survival time, dose: 2.0 mg/kg/injection, schedule: Q01DX001 (ip), vehicle: saline 101 % of control and 103 % of control | endpoint: mean survival time, dose: 2.0 mg/kg/injection, schedule: Q01DX009 (ip), vehicle: saline 95 % of control and 97 % of control | endpoint: mean survival time, dose: 3.12 mg/kg/injection, schedule: Q01DX005 (iv), vehicle: saline 95 % of control | endpoint: mean survival time, dose: 3.12 mg/kg/injection, schedule: Q01DX009 (im), vehicle: saline 95 % of control | endpoint: mean survival time, dose: 3.12 mg/kg/injection, schedule: Q01DX009 (oral), vehicle: saline 93 % of control | endpoint: mean survival time, dose: 3.12 mg/kg/injection, schedule: Q01DX009 (sc), vehicle: saline 96 % of control | endpoint: mean survival time, dose: 4.0 mg/kg/injection, schedule: Q01DX001 (ip), vehicle: saline 101 % of control and 104 % of control | endpoint: mean survival time, dose: 4.0 mg/kg/injection, schedule: Q01DX009 (ip), vehicle: saline 94 % of control and 101 % of control | endpoint: mean survival time, dose: 6.25 mg/kg/injection, schedule: Q01DX009 (im), vehicle: saline 98 % of control | endpoint: mean survival time, dose: 6.25 mg/kg/injection, schedule: Q01DX009 (ip), vehicle: saline 95 % of control | endpoint: mean survival time, dose: 6.25 mg/kg/injection, schedule: Q01DX009 (oral), vehicle: saline 98 % of control | endpoint: mean survival time, dose: 6.25 mg/kg/injection, schedule: Q01DX009 (sc), vehicle: saline 102 % of control | endpoint: mean survival time, dose: 8.0 mg/kg/injection, schedule: Q01DX001 (ip), vehicle: saline 100 % of control | endpoint: mean survival time, dose: 8.0 mg/kg/injection, schedule: Q01DX009 (ip), vehicle: saline 95 % of control and 97 % of control | endpoint: mean survival time, dose: 12.5 mg/kg/injection, schedule: Q01DX009 (im), vehicle: saline 100 % of control | endpoint: mean survival time, dose: 12.5 mg/kg/injection, schedule: Q01DX009 (ip), vehicle: saline 102 % of control | endpoint: mean survival time, dose: 12.5 mg/kg/injection, schedule: Q01DX009 (oral), vehicle: saline 100 % of control | endpoint: mean survival time, dose: 12.5 mg/kg/injection, schedule: Q01DX009 (sc), vehicle: saline 94 % of control | endpoint: mean survival time, dose: 16.0 mg/kg/injection, schedule: Q01DX001 (ip), vehicle: saline 94 % of control | endpoint: mean survival time, dose: 16.0 mg/kg/injection, schedule: Q01DX009 (ip), vehicle: saline 101 % of control | endpoint: mean survival time, dose: 25.0 mg/kg/injection, schedule: Q01DX009 (ip), vehicle: saline 95 % of control | endpoint: mean survival time, dose: 25.0 mg/kg/injection, schedule: Q01DX009 (sc), vehicle: saline 102 % of control | endpoint: mean survival time, dose: 32.0 mg/kg/injection, schedule: Q01DX001 (ip), vehicle: saline 97 % of control | endpoint: mean survival time, dose: 32.0 mg/kg/injection, schedule: Q01DX009 (ip), vehicle: saline 103 % of control | endpoint: mean survival time, dose: 37.5 mg/kg/injection, schedule: Q01DX009 (ip), vehicle: saline 98 % of control | endpoint: mean survival time, dose: 50.0 mg/kg/injection, schedule: Q01DX005 (iv), vehicle: saline 102 % of control | endpoint: mean survival time, dose: 50.0 mg/kg/injection, schedule: Q01DX009 (im), vehicle: saline 96 % of control | endpoint: mean survival time, dose: 50.0 mg/kg/injection, schedule: Q01DX009 (ip), vehicle: saline 96 % of control | endpoint: mean survival time, dose: 50.0 mg/kg/injection, schedule: Q01DX009 (oral), vehicle: saline 100 % of control | endpoint: mean survival time, dose: 64.0 mg/kg/injection, schedule: Q01DX001 (ip), vehicle: saline 97 % of control and 101 % of control | endpoint: mean survival time, dose: 100.0 mg/kg/injection, schedule: Q01DX001 (ip), vehicle: saline 96 % of control | endpoint: mean survival time, dose: 100.0 mg/kg/injection, schedule: Q01DX005 (iv), vehicle: saline 97 % of control | endpoint: mean survival time, dose: 100.0 mg/kg/injection, schedule: Q01DX009 (im), vehicle: saline 96 % of control | endpoint: mean survival time, dose: 100.0 mg/kg/injection, schedule: Q01DX009 (ip), vehicle: saline 93 % of control and 98 % of control | endpoint: mean survival time, dose: 100.0 mg/kg/injection, schedule: Q01DX009 (oral), vehicle: saline 103 % of control | endpoint: mean survival time, dose: 100.0 mg/kg/injection, schedule: Q04DX003 (ip), vehicle: saline 96 % of control | endpoint: mean survival time, dose: 150.0 mg/kg/injection, schedule: Q03HX024 (ip), vehicle: saline 93 % of control | endpoint: mean survival time, dose: 200.0 mg/kg/injection, schedule: Q01DX001 (ip), vehicle: saline 104 % of control | endpoint: mean survival time, dose: 200.0 mg/kg/injection, schedule: Q01DX005 (iv), vehicle: saline 102 % of control | endpoint: mean survival time, dose: 200.0 mg/kg/injection, schedule: Q01DX009 (im), vehicle: saline 98 % of control | endpoint: mean survival time, dose: 200.0 mg/kg/injection, schedule: Q01DX009 (ip), vehicle: saline 101 % of control | endpoint: mean survival time, dose: 200.0 mg/kg/injection, schedule: Q01DX009 (oral), vehicle: saline 96 % of control | endpoint: mean survival time, dose: 300.0 mg/kg/injection, schedule: Q01DX009 (ip), vehicle: saline 97 % of control | endpoint: mean survival time, dose: 400.0 mg/kg/injection, schedule: Q01DX001 (ip), vehicle: saline 93 % of control | endpoint: mean survival time, dose: 400.0 mg/kg/injection, schedule: Q01DX005 (iv), vehicle: saline 101 % of control | endpoint: mean survival time, dose: 400.0 mg/kg/injection, schedule: Q01DX009 (im), vehicle: saline 102 % of control | endpoint: mean survival time, dose: 400.0 mg/kg/injection, schedule: Q01DX009 (ip), vehicle: saline 93 % of control and 95 % of control and 102 % of control | endpoint: mean survival time, dose: 400.0 mg/kg/injection, schedule: Q01DX009 (oral), vehicle: saline 98 % of control | endpoint: mean survival time, dose: 800.0 mg/kg/injection, schedule: Q01DX001 (ip), vehicle: saline 94 % of control | endpoint: mean survival time, dose: 800.0 mg/kg/injection, schedule: Q01DX005 (iv), vehicle: saline 98 % of control | endpoint: mean survival time, dose: 800.0 mg/kg/injection, schedule: Q01DX009 (im), vehicle: saline 93 % of control | endpoint: mean survival time, dose: 800.0 mg/kg/injection, schedule: Q01DX009 (oral), vehicle: saline 94 % of control | endpoint: mean survival time, dose: 1200.0 mg/kg/injection, schedule: Q01DX001 (ip), vehicle: saline 100 % of control | endpoint: mean survival time, dose: 1600.0 mg/kg/injection, schedule: Q01DX001 (ip), vehicle: saline 100 % of control | endpoint: mean survival time, dose: 1600.0 mg/kg/injection, schedule: Q01DX009 (im), vehicle: saline 98 % of control | endpoint: mean survival time, dose: 1600.0 mg/kg/injection, schedule: Q01DX009 (oral), vehicle: saline 96 % of control | endpoint: median survival time, dose: 500.0 mg/kg/injection, schedule: Q01DX001 (oral), vehicle: water 100 % of control | endpoint: median survival time, dose: 1000.0 mg/kg/injection, schedule: Q01DX001 (oral), vehicle: water 100 % of control | endpoint: median survival time, dose: 1500.0 mg/kg/injection, schedule: Q01DX001 (oral), vehicle: water 94 % of control | endpoint: median survival time, dose: 3000.0 mg/kg/injection, schedule: Q01DX001 (oral), vehicle: water 100 % of control
